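How tested: cells in 96-well plates exposed to compound for 48 hours at five concentrations. TGI: total growth inhibition.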

Our source for the TGI values is PubChem BioAssay (NCI).

The first experiment deals with M14 melanoma. Nature of the experiment: inhibition of tumour cell growth, NCI panel, 48 h.
The compound `CCCCCCOc1ccc(Nc2c(O)c3c(c(O)c2Cl)C(=O)C=CC3=O)cc1` yielded a TGI above 6.68 µM.

The subject of the next experiment is A549 NSCLC. Nature of the experiment: inhibition of tumour cell growth, NCI panel, 48 h.
The compound `O=C(c1cccs1)N(C(=O)N1CCN(c2ccccc2)CC1)S(=O)(=O)c1ccccc1` gave a TGI of 98.4 µM.
For `[N-]=[N+]=Nc1cc(=O)n2c3c(cccc13)CCC2`, the TGI is above 100 µM.
In turn, `C=C(C(=O)O)[C@@H]1C[C@@H](OC(C)=O)[C@]2(C)CC/C=C(\C)CCC[C@H](C)[C@H](O)[C@@H]1O2` yielded a TGI above 100 µM.
The compound `CCCCCCOc1ccc(Nc2c(O)c3c(c(O)c2Cl)C(=O)C=CC3=O)cc1` yielded a TGI above 10 µM.

The subject of a further experiment is HCC-2998 colon. Nature of the experiment: inhibition of tumour cell growth, NCI panel, 48 h.
Take `O=C(c1cccs1)N(C(=O)N1CCN(c2ccccc2)CC1)S(=O)(=O)c1ccccc1`: the TGI is above 100 µM.
On the same count and under the same terms, the value for `[N-]=[N+]=Nc1cc(=O)n2c3c(cccc13)CCC2` was above 100 µM; that for `C=C(C(=O)O)[C@@H]1C[C@@H](OC(C)=O)[C@]2(C)CC/C=C(\C)CCC[C@H](C)[C@H](O)[C@@H]1O2` was above 100 µM.
On to `CCCCCCOc1ccc(Nc2c(O)c3c(c(O)c2Cl)C(=O)C=CC3=O)cc1`, for which the TGI amounted to 3.86 µM.

For the next experiment, the system named is TK-10 renal. Nature of the experiment: inhibition of tumour cell growth, NCI panel, 48 h.
In turn, `O=C(c1cccs1)N(C(=O)N1CCN(c2ccccc2)CC1)S(=O)(=O)c1ccccc1` yielded a TGI above 100 µM.
Compound `[N-]=[N+]=Nc1cc(=O)n2c3c(cccc13)CCC2` had a TGI above 100 µM.
The same measure, in the same setting: in the case of `C=C(C(=O)O)[C@@H]1C[C@@H](OC(C)=O)[C@]2(C)CC/C=C(\C)CCC[C@H](C)[C@H](O)[C@@H]1O2` it was above 100 µM.
Turning to `CCCCCCOc1ccc(Nc2c(O)c3c(c(O)c2Cl)C(=O)C=CC3=O)cc1`, the TGI is above 10 µM.

For another experiment, the system named is HOP-62 NSCLC. Nature of the experiment: inhibition of tumour cell growth, NCI panel, 48 h.
Compound `O=C(c1cccs1)N(C(=O)N1CCN(c2ccccc2)CC1)S(=O)(=O)c1ccccc1` gave a TGI above 100 µM.
`[N-]=[N+]=Nc1cc(=O)n2c3c(cccc13)CCC2` yielded a TGI above 100 µM.
Turning to `CCCCCCOc1ccc(Nc2c(O)c3c(c(O)c2Cl)C(=O)C=CC3=O)cc1`, the TGI is above 8.71 µM.

Another experiment deals with CCRF-CEM leukemia. Nature of the experiment: inhibition of tumour cell growth, NCI panel, 48 h.
In turn, `O=C(c1cccs1)N(C(=O)N1CCN(c2ccccc2)CC1)S(=O)(=O)c1ccccc1` came in with a TGI above 100 µM.
`[N-]=[N+]=Nc1cc(=O)n2c3c(cccc13)CCC2`: the TGI is above 100 µM.
The same measure, in the same setting: the value for `C=C(C(=O)O)[C@@H]1C[C@@H](OC(C)=O)[C@]2(C)CC/C=C(\C)CCC[C@H](C)[C@H](O)[C@@H]1O2` was 73.4 µM; that for `CCCCCCOc1ccc(Nc2c(O)c3c(c(O)c2Cl)C(=O)C=CC3=O)cc1` was 8.61 µM.

The test system of the next experiment is A498 renal. Nature of the experiment: inhibition of tumour cell growth, NCI panel, 48 h.
In the case of `O=C(c1cccs1)N(C(=O)N1CCN(c2ccccc2)CC1)S(=O)(=O)c1ccccc1`, the TGI is above 100 µM.
The compound `[N-]=[N+]=Nc1cc(=O)n2c3c(cccc13)CCC2` came in with a TGI above 100 µM.
Same read-out and setting: the value for `C=C(C(=O)O)[C@@H]1C[C@@H](OC(C)=O)[C@]2(C)CC/C=C(\C)CCC[C@H](C)[C@H](O)[C@@H]1O2` was above 100 µM; that for `CCCCCCOc1ccc(Nc2c(O)c3c(c(O)c2Cl)C(=O)C=CC3=O)cc1` was above 10 µM.

Another experiment concerns SK-MEL-2 melanoma. Nature of the experiment: inhibition of tumour cell growth, NCI panel, 48 h.
In the case of `O=C(c1cccs1)N(C(=O)N1CCN(c2ccccc2)CC1)S(=O)(=O)c1ccccc1`, the TGI stood at 36.3 µM.
Compound `C=C(C(=O)O)[C@@H]1C[C@@H](OC(C)=O)[C@]2(C)CC/C=C(\C)CCC[C@H](C)[C@H](O)[C@@H]1O2` registered a TGI above 100 µM.
Still for that read-out and setting: the value for `CCCCCCOc1ccc(Nc2c(O)c3c(c(O)c2Cl)C(=O)C=CC3=O)cc1` was 7.05 µM.

In another experiment the test system is ACHN renal. Nature of the experiment: inhibition of tumour cell growth, NCI panel, 48 h.
`O=C(c1cccs1)N(C(=O)N1CCN(c2ccccc2)CC1)S(=O)(=O)c1ccccc1` gave a TGI of 39.9 µM.
Regarding `[N-]=[N+]=Nc1cc(=O)n2c3c(cccc13)CCC2`, the TGI was above 100 µM.
Compound `C=C(C(=O)O)[C@@H]1C[C@@H](OC(C)=O)[C@]2(C)CC/C=C(\C)CCC[C@H](C)[C@H](O)[C@@H]1O2` gave a TGI above 100 µM.
`CCCCCCOc1ccc(Nc2c(O)c3c(c(O)c2Cl)C(=O)C=CC3=O)cc1` showed a TGI above 10 µM.

The subject of another experiment is HS 578T breast. Nature of the experiment: inhibition of tumour cell growth, NCI panel, 48 h.
With `O=C(c1cccs1)N(C(=O)N1CCN(c2ccccc2)CC1)S(=O)(=O)c1ccccc1`, the TGI stood at 65.9 µM.
The compound `[N-]=[N+]=Nc1cc(=O)n2c3c(cccc13)CCC2` gave a TGI above 100 µM.
On the same count and under the same terms, the value for `C=C(C(=O)O)[C@@H]1C[C@@H](OC(C)=O)[C@]2(C)CC/C=C(\C)CCC[C@H](C)[C@H](O)[C@@H]1O2` was above 100 µM; that for `CCCCCCOc1ccc(Nc2c(O)c3c(c(O)c2Cl)C(=O)C=CC3=O)cc1` was 8.39 µM.

Another experiment relates to NCI-H460 lung. Nature of the experiment: inhibition of tumour cell growth, NCI panel, 48 h.
The compound `O=C(c1cccs1)N(C(=O)N1CCN(c2ccccc2)CC1)S(=O)(=O)c1ccccc1` gave a TGI of 97.3 µM.
The same measure, in the same setting: the value for `[N-]=[N+]=Nc1cc(=O)n2c3c(cccc13)CCC2` was above 100 µM; that for `C=C(C(=O)O)[C@@H]1C[C@@H](OC(C)=O)[C@]2(C)CC/C=C(\C)CCC[C@H](C)[C@H](O)[C@@H]1O2` was above 100 µM; that for `CCCCCCOc1ccc(Nc2c(O)c3c(c(O)c2Cl)C(=O)C=CC3=O)cc1` was 6.52 µM.

The next experiment relates to HOP-92 NSCLC. Nature of the experiment: inhibition of tumour cell growth, NCI panel, 48 h.
Regarding `O=C(c1cccs1)N(C(=O)N1CCN(c2ccccc2)CC1)S(=O)(=O)c1ccccc1`, the TGI was 55.6 µM.
The same measure, in the same setting: in the case of `[N-]=[N+]=Nc1cc(=O)n2c3c(cccc13)CCC2` it was above 100 µM; in that of `C=C(C(=O)O)[C@@H]1C[C@@H](OC(C)=O)[C@]2(C)CC/C=C(\C)CCC[C@H](C)[C@H](O)[C@@H]1O2`, above 100 µM; in that of `CCCCCCOc1ccc(Nc2c(O)c3c(c(O)c2Cl)C(=O)C=CC3=O)cc1`, 7.14 µM.

A further experiment deals with RPMI-8226 leukemia. Nature of the experiment: inhibition of tumour cell growth, NCI panel, 48 h.
`[N-]=[N+]=Nc1cc(=O)n2c3c(cccc13)CCC2` gave a TGI above 100 µM.
`C=C(C(=O)O)[C@@H]1C[C@@H](OC(C)=O)[C@]2(C)CC/C=C(\C)CCC[C@H](C)[C@H](O)[C@@H]1O2` came in with a TGI above 100 µM.
Still for that read-out and setting: in the case of `CCCCCCOc1ccc(Nc2c(O)c3c(c(O)c2Cl)C(=O)C=CC3=O)cc1` it was 5.11 µM.

The test system of the next experiment is MALME-3M melanoma. Nature of the experiment: inhibition of tumour cell growth, NCI panel, 48 h.
On to `O=C(c1cccs1)N(C(=O)N1CCN(c2ccccc2)CC1)S(=O)(=O)c1ccccc1`, for which the TGI amounted to 42.1 µM.
With `[N-]=[N+]=Nc1cc(=O)n2c3c(cccc13)CCC2`, the TGI was above 100 µM.
The compound `C=C(C(=O)O)[C@@H]1C[C@@H](OC(C)=O)[C@]2(C)CC/C=C(\C)CCC[C@H](C)[C@H](O)[C@@H]1O2` registered a TGI above 100 µM.
With `CCCCCCOc1ccc(Nc2c(O)c3c(c(O)c2Cl)C(=O)C=CC3=O)cc1`, the TGI amounted to 4.04 µM.

A further experiment concerns EKVX NSCLC. Nature of the experiment: inhibition of tumour cell growth, NCI panel, 48 h.
Consider `O=C(c1cccs1)N(C(=O)N1CCN(c2ccccc2)CC1)S(=O)(=O)c1ccccc1`, for which the TGI stood at 42.3 µM.
Regarding `[N-]=[N+]=Nc1cc(=O)n2c3c(cccc13)CCC2`, the TGI is above 100 µM.
The same measure, in the same setting: in the case of `C=C(C(=O)O)[C@@H]1C[C@@H](OC(C)=O)[C@]2(C)CC/C=C(\C)CCC[C@H](C)[C@H](O)[C@@H]1O2` it was above 100 µM; in that of `CCCCCCOc1ccc(Nc2c(O)c3c(c(O)c2Cl)C(=O)C=CC3=O)cc1`, above 10 µM.

A further experiment has as its system U251 CNS. Nature of the experiment: inhibition of tumour cell growth, NCI panel, 48 h.
Regarding `O=C(c1cccs1)N(C(=O)N1CCN(c2ccccc2)CC1)S(=O)(=O)c1ccccc1`, the TGI stood at 33.3 µM.
